Source: ChEMBL document CHEMBL1201862, “PubChem BioAssay data set” (2004)
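A five-concentration, 48-hour dose response in 96-well plates underlies each endpoint, interpolated linearly between surrounding concentrations. Here, GI50 denotes the concentration required for 50% inhibition of growth.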 Activity calls are given as the source filed them. Cut-off read from the data, not from the text of the source: active = GI50 up to about 1.1 µM and inactive = higher.

Experiments:
Assay in all cases: NCI-60 cell line screen, 48 h
NCI-H522 = tested on: NCI-H522
UACC-257 = tested on: UACC-257
IGROV-1 = tested on: IGROV-1
RXF 393 = tested on: RXF 393
CCRF-CEM = tested on: CCRF-CEM
ACHN = tested on: ACHN
COLO 205 = tested on: COLO 205
UO-31 = tested on: UO-31
A549 = tested on: A549
MOLT-4 = tested on: MOLT-4
PC-3 = tested on: PC-3
OVCAR-5 = tested on: OVCAR-5
MDA-MB-231 = tested on: MDA-MB-231
U-251 = tested on: U-251
SF-268 = tested on: SF-268
RPMI-8226 = tested on: RPMI-8226
UACC-62 = tested on: UACC-62
OVCAR-8 = tested on: OVCAR-8
SK-MEL-28 = tested on: SK-MEL-28
SK-OV-3 = tested on: SK-OV-3
NCI-H23 = tested on: NCI-H23
OVCAR-4 = tested on: OVCAR-4
K562 = tested on: K562
SK-MEL-5 = tested on: SK-MEL-5
EKVX = tested on: EKVX
TK-10 = tested on: TK-10
786-0 = tested on: 786-0
SF-295 = tested on: SF-295
SNB-19 = tested on: SNB-19
SW-620 = tested on: SW-620
HCC 2998 = tested on: HCC 2998
KM12 = tested on: KM12
HCT-116 = tested on: HCT-116
HOP-92 = tested on: HOP-92
NCI/ADR-RES = tested on: NCI/ADR-RES
MDA-N = tested on: MDA-N
T47D = tested on: T47D
MCF7 = tested on: MCF7
OVCAR-3 = tested on: OVCAR-3
HOP-62 = tested on: HOP-62
NCI-H460 = tested on: NCI-H460
CAKI-1 = tested on: CAKI-1
BT-549 = tested on: BT-549
Malme-3M = tested on: Malme-3M
MDA-MB-435 = tested on: MDA-MB-435
HT-29 = tested on: HT-29
NCI-H226 = tested on: NCI-H226
A498 = tested on: A498
SK-MEL-2 = tested on: SK-MEL-2
HL-60 = tested on: HL-60
M14 = tested on: M14
HCT-15 = tested on: HCT-15
SN12C = tested on: SN12C
DU-145 = tested on: DU-145
SF-539 = tested on: SF-539
SNB-75 = tested on: SNB-75
LOX IMVI = tested on: LOX IMVI

Measured: GI50

O=C(NN1C(=O)CSC1c1ccco1)c1ccncc1 (configuration not stated)
> 100 µM: HCT-15
inactive: NCI-H522 > 100 µM | UACC-257 > 100 µM | IGROV-1 > 100 µM | RXF 393 > 100 µM | CCRF-CEM > 100 µM | ACHN > 100 µM | COLO 205 > 100 µM | UO-31 > 100 µM | A549 > 100 µM | MOLT-4 > 100 µM | PC-3 > 100 µM | OVCAR-5 > 100 µM | MDA-MB-231 > 100 µM | U-251 > 100 µM | SF-268 > 100 µM | RPMI-8226 > 100 µM | UACC-62 > 100 µM | OVCAR-8 > 100 µM | SK-MEL-28 > 100 µM | SK-OV-3 > 100 µM | NCI-H23 > 100 µM | OVCAR-4 > 100 µM | K562 > 100 µM | SK-MEL-5 > 100 µM | EKVX > 100 µM | TK-10 > 100 µM | 786-0 > 100 µM | SF-295 > 100 µM | SNB-19 > 100 µM | SW-620 > 100 µM | HCC 2998 > 100 µM | KM12 > 100 µM | HCT-116 > 100 µM | HOP-92 > 100 µM | NCI/ADR-RES > 100 µM | MDA-N > 100 µM | T47D > 100 µM | MCF7 > 100 µM | OVCAR-3 > 100 µM | HOP-62 > 100 µM | NCI-H460 > 100 µM | CAKI-1 > 100 µM | BT-549 > 100 µM | Malme-3M > 100 µM | MDA-MB-435 > 100 µM | HT-29 > 100 µM | NCI-H226 > 100 µM | A498 > 100 µM | SK-MEL-2 > 100 µM | HL-60 > 100 µM | M14 > 100 µM | SN12C > 100 µM | DU-145 > 100 µM | SF-539 > 100 µM

CN(C)C1(N(C)C)Oc2c(c(=O)n(C)c(=O)n2C)C(c2ccc(C(F)(F)F)cc2)C1(F)F (configuration not stated)
inactive: UACC-257 > 100 µM | RXF 393 > 100 µM | CCRF-CEM > 100 µM | ACHN > 100 µM | COLO 205 > 100 µM | UO-31 > 100 µM | A549 > 100 µM | PC-3 > 100 µM | OVCAR-5 > 100 µM | MDA-MB-231 > 100 µM | U-251 > 100 µM | SF-268 > 100 µM | RPMI-8226 > 100 µM | UACC-62 > 100 µM | SK-MEL-28 > 100 µM | SK-OV-3 > 100 µM | NCI-H23 > 100 µM | OVCAR-4 > 100 µM | K562 > 100 µM | SK-MEL-5 > 100 µM | EKVX > 100 µM | TK-10 > 100 µM | 786-0 > 100 µM | SNB-75 > 100 µM | SF-295 > 100 µM | SNB-19 > 100 µM | SW-620 > 100 µM | HCC 2998 > 100 µM | KM12 > 100 µM | HCT-116 > 100 µM | HOP-92 > 100 µM | NCI/ADR-RES > 100 µM | T47D > 100 µM | MCF7 > 100 µM | OVCAR-3 > 100 µM | HOP-62 > 100 µM | NCI-H460 > 100 µM | CAKI-1 > 100 µM | BT-549 > 100 µM | MDA-MB-435 > 100 µM | LOX IMVI > 100 µM | NCI-H226 > 100 µM | A498 > 100 µM | SK-MEL-2 > 100 µM | M14 > 100 µM | DU-145 > 100 µM
> 100 µM: HCT-15
